{"source": "patent US20250135012A1", "about": "“DENDRIMER CONJUGATES OF SMALL MOLECULE BIOLOGICS FOR INTRACELLULAR DELIVERY” (The Johns Hopkins University, priority 2021, published 2025)", "key": {"IL1β": {"test_system": "IL1β", "assay": "IL1β expression in LPS stimulated RAW264.7 cells (qPCR)", "type": "cell-based, murine", "conditions": "24 h pretreatment, LPS 3 h", "experimental": "(§1) RAW264.7 cells were seeded at a density of 1×10^5 cells per well in 12-well plates 48 h before treatment. Cells were incubated with D-ALG1001 and ALG-1001 for 24 h, the treatment media was aspirated then LPS at a concentration of 10,000 Endotoxin Units/mL was added to stimulate inflammatory response. Samples were collected 3 h after LPS stimulation for qPCR analysis.\n(§2) 100 μL of chloroform was added to the Trizol suspension and the aqueous phase was separated with a centrifuge at 10K RPM at 4° C. for 15 minutes. 400 μL of 2-propanol was added to the aqueous solution and spun again to pellet the RNA. The RNA was washed with 70% ethanol solution, pelleted again, and re-suspended in DEPC (ultrapure treated to inactivated enzymes) water.\n(§3) To convert RNA to complementary DNA, 2 μg of RNA was converted using a High-Capacity cDNA Reverse Transcription Kit (Applied Biosystems, Foster City, CA). Samples were analyzed using STEPONE PLUS® real-time PCR system (Applied Biosystems) with SYBR Green reagent (ThermoFisher Scientific). Relative expression was quantified with ΔΔCt calculations normalized to controls. Primers for GAPDH was obtained from Bio-Rad Laboratories (Hercules, CA). Primers were purchased from Integrated DNA Technologies (Coralville, IA). Primers for TNFα were: […]"}, "TNFα": {"test_system": "TNFα", "assay": "TNFα expression in LPS stimulated RAW264.7 cells (qPCR)", "type": "cell-based, murine", "conditions": "only at the highest dose", "experimental": "as §1, §2, §3"}, "CNV area": {"test_system": "CNV area", "assay": "Biodistribution after systemic administration, laser CNV model", "type": "in vivo, Brown Norway rats", "conditions": "systemic (intraperitoneal) administration, 150 μg", "experimental": "For biodistribution studies, a dose of Cy5-D-ALG1001-Cy3 and ALG-1001-Cy3 at 150 μg/100 μL was administered to each animal intraperitoneally on the day of CNV induction (Day 0). Animals were sacrificed at 1-, 2-, 3-, and 4-day time points and enucleated.\nAfter fixation, the posterior segment of the eye was dissected out and the retina separated from the choroid. Tissues stained with FITC-labeled isolectin (GS IB4) (Life Technologies, Eugene, OR) for blood vessels and monocytes. Eyes were mounted by introducing four radial relaxation cuts. Samples for biodistribution were imaged under a confocal 710 microscope (Carl Zeiss, Oberkochen, Germany). Samples for CNV quantification were imaged with an Axiovert phase contrast microscope. All images were processed with ImageJ.\nFluorescently labeled Cy3-ALG-1001 peptide and dual labeled Cy5-dendrimer-ALG-Cy3 were systemically injected on day 0 (same day as CNV induction) and choroidal tissues were collected at set time points. Confocal microscopy was used to monitor the presence of ALG-1001 peptide (Cy3), dendrimer carrier (Cy5), CNV formation (Isolectin), and macrophages (Iba1). […] In comparison, D-ALG was able to not only reach the CNV area within 24 h after systemic injection but also remain in the target area up to 4 days post administration from the co-localized presence of both Cy5 and Cy3 signals."}, "[1]": {"test_system": "choroidal neovascularization (CNV)", "assay": "Laser CNV model, CNV area", "type": "in vivo, Brown Norway rats", "experimental": "Animals were anesthetized through intraperitoneal injections of a ketamine/xylazine cocktail (ketamine 50 mg/kg and xylazine 10 mg/kg). Pupils are dilated with topical 2.5% Phenylephrine Hydrochloride solution followed by 0.5% Tetracaine Hydrochloride solution. To induce CNV formation, four equally spaced lesions will be created in the Bruch's membrane with a built-in laser system on the Micron III SLO. Laser power was set to […] with duration of 70 ms. Gonio ophthalmic solution was applied post-operatively to prevent eyes from drying and forming cataracts.\nOn the day of CNV induction (Day 0), D-ALG1001 and ALG1001 was administered intraperitoneally at a dose of 150 μg on a peptide basis. […]\nAfter fixation, the posterior segment of the eye was dissected out and the retina separated from the choroid. […] Samples for CNV quantification were imaged with an Axiovert phase contrast microscope. […]\nA Micron III SLO scope and laser attachment was used to induce CNV formation in mice. […] Whether dendrimer conjugation impeded the peptide from attenuating CNV was assessed by first injecting ALG-1001 and D-ALG intravitreally after CNV induction. The eyes were then collected on day 7 and CNV area quantified.\nThe protection and targeting of D-ALG allowed for less invasive administration routes. […] Choroidal flatmount of eyes at day 7 and 14 were imaged and the CNV area was calculated using ImageJ."}}, "note": "Several values for one entry are separate records, joined by “and”; a condition that tells them apart may be missing. Equal entries are not always repeated. Non-standard residues stand in square brackets, D forms with d. Residues, ends and D or L forms follow the SMILES beside them. Cya = N[C@@H](CS(=O)(=O)O)C(=O)O", "data": [{"smiles": "C[C@@H](O)[C@H](NC(=O)[C@H](CS(=O)(=O)O)NC(=O)CNC(=O)[C@H](CCCNC(=N)N)NC(=O)CN)C(=O)N1CCC[C@H]1C(=O)O", "note": "[ALG-1001] (H-GRG[Cya]TP-OH; N-terminus and C-terminus assumed)", "values": [{"measurement": "impact on IL1β production", "setting": "IL1β", "value": "no impact on IL1β production"}, {"measurement": "reduction of TNFα expression", "setting": "TNFα", "value": 20, "unit": "%"}, {"measurement": "time remaining in the CNV target area", "setting": "CNV area", "value": "up to 2 days"}, {"measurement": "reduction of CNV formation", "setting": "[1]; day 7, intraperitoneal 150 μg peptide basis every 4 days", "value": "~60% and 40%"}, {"measurement": "formation of CNV", "setting": "[1]; intravitreal, day 7", "value": "significantly inhibited"}]}]}
